Test results: PubChem BioAssay (NCI)
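Dose response: 5 concentrations. Exposure: 48 h. Format: 96-well plates. Endpoint: linear interpolation; highest concentration if not reached. GI50 marks 50% less growth. The concentration for full growth arrest is given as TGI.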

What was measured:
Experiment in all cases: growth of human tumour cells (NCI), 48 h
RPMI-8226 leukemia = system: RPMI-8226 leukemia
SF-295 CNS = system: SF-295 CNS
LOX IMVI melanoma = system: LOX IMVI melanoma
MDA-MB-435 = system: MDA-MB-435
SR leukemia = system: SR leukemia
MDA-MB-231 breast = system: MDA-MB-231 breast
RXF 393 renal = system: RXF 393 renal
ACHN renal = system: ACHN renal
SK-OV-3 ovarian = system: SK-OV-3 ovarian
BT-549 breast = system: BT-549 breast

For `CC(=O)OC1C(COC(=O)c2ccccc2)OC(Nc2ncc(-c3ccc(Br)cc3)s2)C(OC(=O)c2ccccc2)C1OC(=O)c1ccccc1` (stereo unspecified), the TGI (RPMI-8226 leukemia) was > 100 µM, the TGI (SF-295 CNS) was > 100 µM and the TGI (LOX IMVI melanoma) was > 100 µM. For the same compound, the TGI (MDA-MB-435) was > 100 µM, the TGI (SR leukemia) was > 100 µM and the TGI (MDA-MB-231 breast) was > 100 µM. The TGI (RXF 393 renal) was > 100 µM, the TGI (ACHN renal) was > 100 µM and the TGI (SK-OV-3 ovarian) was > 100 µM. For the same compound, the TGI (BT-549 breast) was > 100 µM.

`O=C1c2ccccc2NC(=S)[C@@H]2CCCN12` was tested, and the TGI (RPMI-8226 leukemia) was > 100 µM, the TGI (SF-295 CNS) was > 100 µM and the TGI (LOX IMVI melanoma) was > 100 µM. For the same compound, the TGI (MDA-MB-435) was > 100 µM, the TGI (SR leukemia) was > 100 µM and the TGI (MDA-MB-231 breast) was > 100 µM. The TGI (RXF 393 renal) was > 100 µM, the TGI (ACHN renal) was > 100 µM and the TGI (SK-OV-3 ovarian) was > 100 µM. The TGI (BT-549 breast) was > 100 µM.

`COC1=C(C)C(=O)c2c(c(COC(N)=O)c3n2CC(OC(C)=O)C3OC(C)=O)C1=O` (stereo unspecified) showed a TGI (RPMI-8226 leukemia) of 1.36 µM, a TGI (SF-295 CNS) of 0.657 µM and a TGI (LOX IMVI melanoma) of 1.06 µM. For the same compound, the TGI (MDA-MB-435) was 0.415 µM, the TGI (SR leukemia) was 0.0442 µM and the TGI (MDA-MB-231 breast) was 0.515 µM. The TGI (RXF 393 renal) was 0.428 µM, the TGI (ACHN renal) was 1.03 µM and the TGI (SK-OV-3 ovarian) was 1.57 µM. For the same compound, the TGI (BT-549 breast) was 1.21 µM.

`C[C@]12CC[C@@H]3c4cc(I)c(O)cc4CC[C@H]3[C@@H]1CC[C@@H]2O` showed a TGI (RPMI-8226 leukemia) of 37.7 µM, a TGI (SF-295 CNS) of 16.4 µM and a TGI (LOX IMVI melanoma) of 25.8 µM. It also gave a GI50 (MDA-MB-435) of 2.11 µM, a TGI (MDA-MB-435) of 8.02 µM and a TGI (SR leukemia) of 13.7 µM. It also gave a TGI (MDA-MB-231 breast) of 25.3 µM, a TGI (RXF 393 renal) of 20.1 µM and a TGI (ACHN renal) of 21 µM. For the same compound, the TGI (SK-OV-3 ovarian) was 16.4 µM and the TGI (BT-549 breast) was 25.1 µM.

For `COc1ccc(-c2cc(-c3ccccc3)[nH]c(=S)c2C#N)cc1`, the TGI (RPMI-8226 leukemia) was 51.7 µM, the TGI (SF-295 CNS) was > 100 µM and the TGI (LOX IMVI melanoma) was > 100 µM. The TGI (MDA-MB-435) was 42.8 µM, the TGI (SR leukemia) was > 100 µM and the TGI (MDA-MB-231 breast) was > 100 µM. For the same compound, the TGI (RXF 393 renal) was > 100 µM, the TGI (ACHN renal) was > 100 µM and the TGI (SK-OV-3 ovarian) was 93.6 µM. For the same compound, the TGI (BT-549 breast) was > 100 µM.

`COC(=O)[C@H](Cc1ccccc1)NC(=O)CCCCCCC(=O)NO` was tested, and the TGI (RPMI-8226 leukemia) was > 100 µM, the TGI (SF-295 CNS) was 44.6 µM and the TGI (LOX IMVI melanoma) was 32.4 µM. The TGI (MDA-MB-435) was 63.8 µM, the TGI (SR leukemia) was > 100 µM and the TGI (MDA-MB-231 breast) was 65.3 µM. For the same compound, the TGI (RXF 393 renal) was 32.3 µM, the TGI (ACHN renal) was > 100 µM and the TGI (SK-OV-3 ovarian) was 52.3 µM. The TGI (BT-549 breast) was > 100 µM.

For `O=c1[nH]c(Nc2cccc(CO)c2)nc2nc[nH]c12`, the TGI (RPMI-8226 leukemia) was > 100 µM, the TGI (SF-295 CNS) was > 100 µM and the TGI (LOX IMVI melanoma) was > 100 µM. For the same compound, the TGI (MDA-MB-435) was > 100 µM, the TGI (SR leukemia) was > 100 µM and the TGI (MDA-MB-231 breast) was > 100 µM. The TGI (RXF 393 renal) was > 100 µM, the TGI (ACHN renal) was > 100 µM and the TGI (SK-OV-3 ovarian) was > 100 µM. For the same compound, the TGI (BT-549 breast) was > 100 µM.

`COC(=O)/C(C#N)=C(/NCCN)Nc1ccccc1` was tested, and the TGI (RPMI-8226 leukemia) was > 100 µM, the TGI (SF-295 CNS) was > 100 µM and the TGI (LOX IMVI melanoma) was > 100 µM. The TGI (MDA-MB-435) was > 100 µM, the TGI (SR leukemia) was > 100 µM and the TGI (MDA-MB-231 breast) was > 100 µM. The TGI (RXF 393 renal) was > 100 µM, the TGI (ACHN renal) was > 100 µM and the TGI (SK-OV-3 ovarian) was > 100 µM. For the same compound, the TGI (BT-549 breast) was > 100 µM.

For `N#Cc1c(-c2ccccc2)cc(-c2ccc(Cl)cc2)[nH]c1=S`, the TGI (RPMI-8226 leukemia) was 80.2 µM, the TGI (SF-295 CNS) was 83.7 µM and the TGI (LOX IMVI melanoma) was > 100 µM. The TGI (MDA-MB-435) was 43.1 µM, the TGI (SR leukemia) was > 100 µM and the TGI (MDA-MB-231 breast) was 67.3 µM. The TGI (RXF 393 renal) was > 100 µM, the TGI (ACHN renal) was > 100 µM and the TGI (SK-OV-3 ovarian) was 77.6 µM. The TGI (BT-549 breast) was > 100 µM.

With `O=C1CSC2=NC3=C(COC/C3=C\c3ccc(Br)cc3)C(c3ccc(Br)cc3)N12` (stereo unspecified) the TGI (RPMI-8226 leukemia) was > 100 µM, the TGI (SF-295 CNS) was > 100 µM and the TGI (LOX IMVI melanoma) was > 100 µM. The TGI (MDA-MB-435) was > 100 µM, the TGI (SR leukemia) was 60.9 µM and the TGI (MDA-MB-231 breast) was > 100 µM. The TGI (RXF 393 renal) was > 100 µM, the TGI (ACHN renal) was > 100 µM and the TGI (SK-OV-3 ovarian) was > 100 µM. The TGI (BT-549 breast) was > 100 µM.

With `COc1ccc(CN2C3CC2CN(c2ccc(-c4cc(OCC(C)(C)O)cn5ncc(C#N)c45)cn2)C3)cn1` the GI50 (RPMI-8226 leukemia) was > 100 µM, the TGI (RPMI-8226 leukemia) was > 100 µM and the GI50 (SF-295 CNS) was 5.27 µM. The TGI (SF-295 CNS) was > 100 µM, the GI50 (LOX IMVI melanoma) was 15.1 µM and the TGI (LOX IMVI melanoma) was > 100 µM. The GI50 (MDA-MB-435) was > 100 µM, the TGI (MDA-MB-435) was > 100 µM and the GI50 (SR leukemia) was 4.45 µM. For the same compound, the TGI (SR leukemia) was > 100 µM, the GI50 (MDA-MB-231 breast) was 8.04 µM and the TGI (MDA-MB-231 breast) was > 100 µM. For the same compound, the GI50 (RXF 393 renal) was 2.18 µM, the TGI (RXF 393 renal) was 9.45 µM and the GI50 (ACHN renal) was 6.86 µM. The TGI (ACHN renal) was > 100 µM, the GI50 (SK-OV-3 ovarian) was 5.64 µM and the TGI (SK-OV-3 ovarian) was > 100 µM. The GI50 (BT-549 breast) was 3.34 µM and the TGI (BT-549 breast) was > 100 µM.

In the case of `COc1cc(/C=C/C=C2\CC/C(=C\C=C\c3ccc(O)c(OC)c3)C2=O)ccc1O`, the TGI (RPMI-8226 leukemia) is reported as > 100 µM, the TGI (SF-295 CNS) is reported as > 100 µM and the TGI (LOX IMVI melanoma) is reported as > 100 µM. The TGI (MDA-MB-435) was > 100 µM, the TGI (SR leukemia) was 17.9 µM and the TGI (MDA-MB-231 breast) was > 100 µM. For the same compound, the TGI (RXF 393 renal) was 77.7 µM, the TGI (ACHN renal) was > 100 µM and the TGI (SK-OV-3 ovarian) was > 100 µM. The TGI (BT-549 breast) was > 100 µM.

`C#CCN(Cc1ccc2nc(OC)c(OC)nc2c1)c1cc(OC)c(OC)c(OC)c1` was tested, and the TGI (RPMI-8226 leukemia) was 28.3 µM, the TGI (SF-295 CNS) was > 100 µM and the TGI (LOX IMVI melanoma) was > 48.9 µM. The TGI (MDA-MB-435) was 74.7 µM, the TGI (SR leukemia) was > 61.7 µM and the TGI (MDA-MB-231 breast) was 43.5 µM. For the same compound, the TGI (RXF 393 renal) was > 75.1 µM, the TGI (ACHN renal) was > 100 µM and the TGI (SK-OV-3 ovarian) was > 100 µM. For the same compound, the TGI (BT-549 breast) was > 72.4 µM.

For `COc1cc2c(cc1OC)-c1cc3ccccc3c(=O)n1CC2`, the TGI (RPMI-8226 leukemia) was 35 µM, the TGI (SF-295 CNS) was 62.1 µM and the TGI (LOX IMVI melanoma) was 27.5 µM. For the same compound, the TGI (MDA-MB-435) was > 100 µM, the TGI (SR leukemia) was 96.8 µM and the TGI (MDA-MB-231 breast) was 43.8 µM. The TGI (RXF 393 renal) was 21.6 µM, the TGI (ACHN renal) was > 100 µM and the TGI (SK-OV-3 ovarian) was 74.5 µM. The TGI (BT-549 breast) was > 100 µM.

With `CC(=O)OC1CCC2C3CCc4c(C)ccc(OS(=O)(=O)c5ccccc5)c4C3CCC12C` (stereo unspecified) the TGI (RPMI-8226 leukemia) was > 100 µM, the TGI (SF-295 CNS) was > 100 µM and the TGI (LOX IMVI melanoma) was > 100 µM. For the same compound, the TGI (MDA-MB-435) was > 100 µM, the TGI (SR leukemia) was > 100 µM and the TGI (MDA-MB-231 breast) was > 100 µM. The TGI (RXF 393 renal) was 94.4 µM, the TGI (ACHN renal) was > 100 µM and the TGI (SK-OV-3 ovarian) was > 100 µM. The TGI (BT-549 breast) was > 100 µM.

`CCOC(=O)c1nc2cc(C(F)(F)F)ccc2nc1Nc1ccc(C(=O)NC(C(=O)OCC)C(=O)OCC)cc1` was tested, and the TGI (RPMI-8226 leukemia) was 65.8 µM, the TGI (SF-295 CNS) was 30.8 µM and the TGI (LOX IMVI melanoma) was > 100 µM. The TGI (MDA-MB-435) was > 100 µM, the TGI (SR leukemia) was > 100 µM and the TGI (MDA-MB-231 breast) was 50.4 µM. It also gave a TGI (RXF 393 renal) of 28.8 µM, a TGI (ACHN renal) of 63.1 µM and a TGI (SK-OV-3 ovarian) of 42.1 µM. For the same compound, the TGI (BT-549 breast) was 51.6 µM.
